Each structure is given as a SMILES string.

Here are results for two molecules from patent publication US7514106B2, “Compositions and methods for uterine relaxing” (Yangsen Biotechnology Co., Ltd., priority 2006, dated 2009).

In assay [1] the test system is PGF2a-stimulated rat uterine muscle contraction. The assay can be described thus: Inhibition of PGF2a-stimulated rat uterine muscle strip contraction (organ bath). The assay is classed as cell-based. The settings on record: 20 μg/ml compound pretreatment for 10 min before PGF2a (1 μM). As to the method: (§1) Uterine relaxing activities on OTC- and KCl-stimulated rat uterine muscle contraction were carried out according to the method described by Ostad S N, Soodi M, Shariffzadeh M, Khorshidi N, and Marzban H. (The effect of fennel essential oil on uterine contraction as a model for dysmenorrhea, pharmacology and toxicology study. Journal of Ethnopharmacology 2001; 76: 299-304.). Female virgin Sprague-Dawley rats (200 g to 300 g) were obtained from the Laboratory Animal Center at Yang-Ming University. They were primed with 5 mg/kg of estradiol (Sigma-Aldrich) 24 hours before the experiments, and then sacrificed by CO2 asphyxiation. Uterine strips free from adhering tissues were mounted under a resting tension of 1 g in a 10 ml organ bath containing dejalon solution gassed with carbogen (95% O2 and 5% CO2) at 31° C., which were then allowed to equilibrate for at least 1 hour. To evaluate the effect on the contractile response induced by PGF2a, a modified Locke-Ringer solution and a maintained temperature of 28° C. were used according to the method described by Murata. P, Hayakawa T, Satoh K, Kase Y, Ishige A, and Sasaki H. (Effects of Dai-kenchu-to, a herbal medicine, on uterine and intestinal motility. Phytotherapy Research 2001; 15: 302-6). Contractions were recorded by force displacements transducers (Grass Instruments USA) using MP100 workstation software (Biopac Systems USA) on a PC. […]

Assay [2] concerns KCl-stimulated rat uterine muscle contraction. As to the kind of experiment: Inhibition of KCl-stimulated rat uterine muscle strip contraction (organ bath). The assay is classed as cell-based. The settings on record: 20 μg/ml compound pretreatment for 10 min before KCl (60 mM). The protocol: as §1

By inhibition is commonly meant the share of the control response that was lost under treatment. In the case of `C=CC(C)(O)CCC=C(C)C` (stereo not shown) [linalool], the “inhibition of muscle contraction” value in assay [1] is on record as “didn't show obvious inhibition”. In addition, the inhibition at 20 µg/mL in assay [2] lay within 27 to 46%.
The corresponding values for `Cc1ccc(C(C)C)c(O)c1` [thymol] are “didn't show obvious inhibition” and 27 to 46%.
